# Source: ChEMBL document CHEMBL3886280, “Nicotinic receptor compounds” (2015)
# pKi: −log10 of the molar value.
# Molecular target: Neuronal acetylcholine receptor subunit alpha-7 (Rattus norvegicus, UniProt Q05941)
# Experiment: Inhibition Assay: Compounds ([…]) were also evaluated for inhibition of binding to a7 nAChR using [125I]iodoMLA as previously reported in Carroll et al. The binding assays were conducted and the Ki values calculated as described in Carroll, F. I. et al., "Synthesis, nicotinic acetylcholine receptor binding, and antinociceptive properties of 2-exo-2-(2',3'-disubstituted 5'-pyridinyl)-7- …
# Sequence of Neuronal acetylcholine receptor subunit alpha-7 (Q05941 whole entry): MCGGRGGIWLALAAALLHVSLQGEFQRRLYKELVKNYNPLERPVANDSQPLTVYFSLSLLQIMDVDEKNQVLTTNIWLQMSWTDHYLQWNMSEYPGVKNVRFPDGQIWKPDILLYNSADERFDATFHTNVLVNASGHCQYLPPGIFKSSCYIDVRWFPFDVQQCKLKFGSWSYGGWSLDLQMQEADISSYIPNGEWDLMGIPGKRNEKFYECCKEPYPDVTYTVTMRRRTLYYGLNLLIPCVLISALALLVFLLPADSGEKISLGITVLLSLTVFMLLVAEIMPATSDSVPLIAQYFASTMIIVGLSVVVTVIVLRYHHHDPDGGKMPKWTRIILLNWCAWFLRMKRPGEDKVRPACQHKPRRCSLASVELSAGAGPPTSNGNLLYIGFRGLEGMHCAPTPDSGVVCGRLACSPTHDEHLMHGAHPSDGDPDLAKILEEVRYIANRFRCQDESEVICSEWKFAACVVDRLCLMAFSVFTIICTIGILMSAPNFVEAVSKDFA
row,SMILES,pKi
1,Fc1ncc(C2CC3CCC2N3)cc1-c1cccc(Cl)c1 (configuration not stated),< 5.70
2,Fc1ncc(C2CC3CCC2N3)cc1-c1ccccc1 (racemic),< 5.70
